According to PubChem BioAssay (NCI):
Several values for one entry are separate records, joined by “and”; a condition that tells them apart may be missing. Equal entries are not always repeated.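 How tested: cells in 96-well plates exposed to compound for 48 hours at five concentrations. Abbreviation: GI50, concentration required for 50% inhibition of growth. At the TGI there is no net growth.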

Assays:
Assay in all cases: growth of human tumour cells (NCI), 48 h
[1] = test system: MDA-MB-231 breast
[2] = test system: BT-549 breast
[3] = test system: PC-3 prostate
[4] = test system: UO-31 renal
[5] = test system: HCT-116 colon
[6] = test system: SF-268 CNS
[7] = test system: 786-0 renal
[8] = test system: A498 renal

Row | Compound | GI50 [1] | TGI [1] | GI50 [2] | TGI [2] | GI50 [3] | TGI [3] | GI50 [4] | TGI [4] | GI50 [5] | TGI [5] | GI50 [6] | TGI [6] | GI50 [7] | TGI [7] | GI50 [8] | TGI [8]
1 | Cc1cc(C)nc(SC2=C(Nc3cccc(Cl)c3)C(=O)N(Cc3ccccc3)C2=O)n1 | > 170 µM | > 170 µM | > 170 µM | > 170 µM | > 170 µM | > 170 µM | > 170 µM | > 170 µM | > 170000 nM | > 170 µM | > 170 µM | > 170 µM | > 170 µM | > 170 µM | > 170000 nM | > 170 µM
2 | Cn1cc(C2=C(c3c4n(c5ccccc35)CCC(CN)CC4)C(=O)NC2=O)c2ccccc21 (configuration not stated) | 3.25 µM | 7.13 µM | 4.7 µM | 8.62 µM | 3.39 µM | 7.95 µM | 4.07 µM | 7.91 µM | 3510 nM | 7.26 µM | 4.02 µM | 7.7 µM | 4.58 µM | 8.55 µM | 3960 nM | 7.55 µM
3 | COc1ccc(Nc2ccnc(NCCCNc3ccnc4cc(Cl)ccc34)n2)cc1 | 0.583 µM | 2.15 µM | 1.65 µM | 3.94 µM | 1.63 µM | 11.2 µM | 0.879 µM | 2.18 µM | 374 nM | 1.54 µM | 1.52 µM | 3.77 µM | 1.49 µM | 2.93 µM | 659 nM | 2.54 µM
4 | O=C(O)c1cccc(CC(Br)C(=O)O)c1 (configuration not stated) |  | > 100 µM |  | > 100 µM |  | > 100 µM |  | > 100 µM |  | > 100 µM |  | > 100 µM |  | > 100 µM |  | > 100 µM
5 | COc1cc(C(=O)n2nc(N3CCN(C)CC3)c3cc(N)ccc32)cc(OC)c1OC | 2.92 µM | 21.6 µM | 4.32 µM | > 100 µM | 17.7 µM | > 100 µM | 2.87 µM | 18.1 µM | 3840 nM | > 100 µM | 4.19 µM | 88.9 µM | 4.42 µM | > 100 µM | 2820 nM | 7.12 µM
6 | CC(C)=CCC/C(C)=C/CC/C(=C/COP(=O)(OCc1ccc([N+](=O)[O-])o1)N(C)CCCCCl)C(C)(C)C (configuration not stated) |  | 1.03 µM |  |  | 0.43 µM | 15.1 µM | > 23.3 µM | > 44.1 µM | 2040 nM | 11.8 µM | 3.69 µM | 19.3 µM | 2.53 µM | 8.18 µM | 125 nM | 2.16 µM
7 | COC(=O)N/N=C(\C)C(CN1CCOCC1)C(c1ccccc1)c1cc2ccccc2oc1=O (configuration not stated) |  | > 100 µM |  | > 100 µM |  | > 100 µM |  | > 100 µM |  | > 100 µM |  | > 100 µM |  | > 100 µM |  | > 100 µM
8 | Cc1ccc2sc3c(NCCCNCCO)nc4ccccc4c3c(=O)c2c1 | 1.56 µM | 3.04 µM | 1.54 µM | 3.02 µM | 1.38 µM | 2.87 µM | 1.28 µM | 2.58 µM | 1410 nM | 2.73 µM | 1.57 µM | 3.2 µM | 1.7 µM | 3.23 µM | 1440 nM | 3.49 µM
9 | O=C1C=CC2(C=C1)CCN=c1c(O)c3c(c(O)c12)=NC=N3 | 14.4 µM and > 100 µM | 31.8 µM and > 100 µM | 18.1 µM and > 100 µM | 32.4 µM and > 100 µM | 10.1 µM and > 100 µM | 35 µM and > 100 µM | 14.5 µM and > 100 µM | 30.5 µM and > 100 µM |  | 22.5 µM and > 100 µM |  | 26.8 µM and > 100 µM | 17.6 µM and > 100 µM | 32.1 µM and > 100 µM | 19200 nM and > 100000 nM | 33.5 µM and > 100 µM
10 | COc1cc(-c2nc3ccccc3s2)ccc1OCc1nc2n(n1)S(=O)(=O)c1ccccc1N2C | > 100 µM | > 100 µM | > 100 µM | > 100 µM | > 100 µM | > 100 µM | > 100 µM | > 100 µM | > 100000 nM | > 100 µM | > 100 µM | > 100 µM | > 100 µM | > 100 µM | > 100000 nM | > 100 µM
11 | COC(=O)c1c2c(c(C)[n+]([O-])c1C)C(=O)C(NCc1ccc(F)c(F)c1)=CC2=O | 1.75 µM | 6.09 µM | 2.14 µM | 5.86 µM | 1.91 µM | 7.75 µM | 1.94 µM | 6.9 µM | 1650 nM | 5.71 µM | 2.31 µM | 7.47 µM | 3.17 µM | 12.7 µM | 1340 nM | 5.65 µM
12 | Cc1ncc([N+](=O)[O-])n1CCNC(=O)CCn1ccnc1[N+](=O)[O-] |  |  |  | > 100 µM |  | > 100 µM |  | > 100 µM |  | > 100 µM |  | > 100 µM |  | > 100 µM |  | 
13 | O=C(O)CCC1CCC(c2cc(F)ccc2F)(S(=O)(=O)c2ccc(Cl)cc2)CC1 (configuration not stated) | 30.4 µM and > 100 µM | > 100 µM | 10.9 µM and 97.8 µM | 43.1 µM and > 100 µM | 75.8 µM and > 100 µM | > 100 µM | 22.7 µM and > 100 µM | > 100 µM | 23500 nM and > 100000 nM | > 100 µM | 48.3 µM and > 100 µM | > 100 µM | 23.8 µM and > 100 µM | > 100 µM |  | 67.1 µM and > 100 µM
14 | CC/C(=C(\CC)c1ccc(OCCN(CC)CC)cc1)c1ccc(OCCN(CC)CC)cc1 | 1.76 µM | 5.82 µM | 4.55 µM | 13.9 µM | 3.25 µM | 19.5 µM | 0.996 µM | 11.3 µM | 1030 nM | 6.25 µM | 5.43 µM | 18.3 µM | 1.6 µM | 3.66 µM | 760 nM | 3.31 µM
15 | O=C(/C=C/c1ccccc1)CCC1C(=O)NC(=O)NC1=O |  | > 100 µM |  | > 100 µM |  | > 100 µM |  | > 100 µM |  | > 100 µM |  | > 100 µM |  | > 100 µM |  | > 100 µM
16 | Cc1ccc(C(=O)NC2CCCCC2)cc1-c1ccc(C(=O)NCC2CC2)cc1 | > 25 µM | > 25 µM | > 22.6 µM | > 25 µM | > 22.8 µM | > 25 µM | > 19.9 µM | > 25 µM | 20900 nM | > 25 µM | > 25 µM | > 25 µM | > 25 µM | > 25 µM | 8510 nM | > 25 µM
17 | CC[C@H](C)C(=O)O[C@H]1CCC=C2C=C[C@H](C)C(CCC3C[C@@H](O)CC(=O)O3)[C@H]21 (some centres not stated) | 0.455 µM | 12.5 µM | 17.2 µM | > 100 µM | 1.48 µM | > 100 µM |  |  | 2990 nM | 62.1 µM | 1.94 µM | > 100 µM | 8.71 µM | > 100 µM | 18.3 nM | 2.42 µM
18 | CCOC(=O)c1c(Cl)c2c(n1Cc1cc(OC)cc(OC)c1)-c1oncc1CCC2 | 0.812 µM | > 91.7 µM | 19.6 µM | > 100 µM | 0.293 µM | > 100 µM | 1.04 µM | > 100 µM | 432 nM | > 100 µM | 1.65 µM | > 100 µM | 1.47 µM | > 71.4 µM | 79.7 nM | 0.605 µM
19 | CO[C@H]1CC[C@@]2(C)C(=CC[C@H]3[C@@H]4C[C@H](O)C[C@@]4(C)CC[C@@H]32)C1 | 4.97 µM | 24.7 µM | 7.38 µM | 22.8 µM | 3.91 µM | 30.3 µM | 6.53 µM | 23.4 µM | 4880 nM | 18.1 µM | 6.42 µM | 21.4 µM | 11.7 µM | 37.7 µM | 1320 nM | 9.25 µM
20 | CC1(C)C2CCC13C(=O)C1OC3(C2)C2C(=O)c3c(O)ccc(O)c3C(=O)C12 (configuration not stated) | 44.2 µM | > 70.3 µM | > 70.3 µM | > 92.2 µM | 30.8 µM | 98.5 µM | 40.5 µM | > 100 µM | 34900 nM | > 100 µM | > 47.1 µM | > 100 µM | 10.5 µM | 24.7 µM | 4950 nM | 56.6 µM
21 | CCN(CC)CCOc1cc2c(C(=O)OC)c(C)oc2cc1C(C)=O | 10.8 µM | 23.5 µM | 7.84 µM | 22.8 µM | 3.97 µM | 13.7 µM | 22.5 µM | > 100 µM |  |  | 13.6 µM | 32.6 µM | 13.1 µM | 25.9 µM | 53000 nM | > 100 µM
22 | CCOC(=O)c1cc2ncccc2c2ccccc12 |  | > 100 µM |  | > 100 µM |  | > 100 µM |  | > 100 µM |  | > 100 µM |  | > 100 µM |  | > 100 µM |  | 
23 | Clc1ccc(CO/N=C(\Cn2ccnc2)c2ccc(Cl)cc2Cl)c(Cl)c1 | 1.32 µM | 2.75 µM | 1.97 µM | 3.61 µM | 1.27 µM | 2.72 µM | 1.34 µM | 2.79 µM | 1500 nM | 3.19 µM |  |  | 1.66 µM | 3.14 µM | 1320 nM | 2.65 µM
24 | COc1cnc2c(c1)C(=O)c1c-2n(CCCN2CCN(C)CC2)c(=O)c2cc(Cl)ccc12 | 10.7 µM | 23.2 µM |  |  | 3.6 µM | 65.7 µM | 3.74 µM | 22.8 µM | 982 nM | > 100 µM | 4.75 µM | 29.1 µM | 2.47 µM | 31.8 µM | 959 nM | 9.61 µM
